Test [1] deals with acetohydroxy acid synthase. The experiment in a line: Acetohydroxy acid synthase activity of crude enzyme solution from transformant AJ12403/pAJ220V3, with amino acid added (feedback inhibition). It is filed as biochemical, Brevibacterium lactofermentum. The conditions noted are these: Amino acid added (5mM); crude enzyme of strain AJ12403/pAJ220V3; 65mM phosphate buffer, 100mM sodium pyruvate. From the text: (§1) In order to confirm that the DNA donor strain or transformant imparted with resistance to antagonist contains a mutant-type gene that codes for acetohydroxy acid synthase with reduced feedback inhibition by L-valine, L-leucine or L-isoleucine, it is necessary to prepare an enzyme solution from that antagonist-resistant strain or transformant, to allow this solution to act upon pyruvic acid ( as substrate ) in the presence of L-valine, L-leucine or L-isoleucine, and to measure the amount of 2-acetolactic acid formed.
(§2) A strain being tested was cultivated in production medium (A) for about 18 hours, the grown cells were ultrasonicated, and the resulting solution was centrifuged at 15,000 r.p.m. for 20 minutes.
(§3) The supernatant thus obtained was used as a crude enzyme solution, which was added to a solution containing 65mM phosphate buffer and 100mM sodium pyruvate to effect enzymic reaction. Acetolactic acid thus formed was converted to acetoin, and the color developed by addition of 2-naphthol was measured at 530 nm.

The test system of test [2] is acetohydroxy acid synthase. Put plainly: Acetohydroxy acid synthase activity of crude enzyme solution from wild-type strain ATCC13869, with amino acid added (feedback inhibition). Type of test: biochemical, Brevibacterium lactofermentum. The conditions noted are these: Amino acid added (5mM), 65mM phosphate buffer, 100mM sodium pyruvate.
Source text: as §1, §2, §3

Experimental findings from patent EP0356739B1, “Recombinant DNA, microorganism carrying said recombinant DNA, and process for producing L-amino acids by the use of said microorganism” (AJINOMOTO CO., INC., priority 1988, dated 1990) are described below.

As to `CC(C)[C@H](N)C(=O)O` [L-Val, L-valine], the “relative activity values (%) when the activity in the absence of amino acid is taken as 100” value (from here on “relative activity values (%)”) in test [1] is 108%; in test [2], 60%.

For the molecule `CC(C)C[C@H](N)C(=O)O` [L-Leu, L-leucine], the “relative activity values (%)” value in test [1] turned out to be 119%; in test [2] it was 67%.

Regarding `CC[C@H](C)[C@H](N)C(=O)O` [L-Ile, L-isoleucine], the “relative activity values (%)” value in test [1] is on record as 101%; in test [2], 60%.
